Experimental data taken from PMC7689712, “Characterization of ancestral myosin XI from Marchantia polymorpha by heterologous expression in Arabidopsis thaliana” (The Plant Journal, 2020).

Target: T1, Mp myosin XI-MD (Marchantia polymorpha, UniProt H3JRT9)
T1 construct: gene MyoXI; motor domain, residues 1-738; N-terminal FLAG tag (MDYKDDDDKRSMNSRPA), C-terminal GGG-Myc-His8 tag
T1 sequence (H3JRT9 1-738): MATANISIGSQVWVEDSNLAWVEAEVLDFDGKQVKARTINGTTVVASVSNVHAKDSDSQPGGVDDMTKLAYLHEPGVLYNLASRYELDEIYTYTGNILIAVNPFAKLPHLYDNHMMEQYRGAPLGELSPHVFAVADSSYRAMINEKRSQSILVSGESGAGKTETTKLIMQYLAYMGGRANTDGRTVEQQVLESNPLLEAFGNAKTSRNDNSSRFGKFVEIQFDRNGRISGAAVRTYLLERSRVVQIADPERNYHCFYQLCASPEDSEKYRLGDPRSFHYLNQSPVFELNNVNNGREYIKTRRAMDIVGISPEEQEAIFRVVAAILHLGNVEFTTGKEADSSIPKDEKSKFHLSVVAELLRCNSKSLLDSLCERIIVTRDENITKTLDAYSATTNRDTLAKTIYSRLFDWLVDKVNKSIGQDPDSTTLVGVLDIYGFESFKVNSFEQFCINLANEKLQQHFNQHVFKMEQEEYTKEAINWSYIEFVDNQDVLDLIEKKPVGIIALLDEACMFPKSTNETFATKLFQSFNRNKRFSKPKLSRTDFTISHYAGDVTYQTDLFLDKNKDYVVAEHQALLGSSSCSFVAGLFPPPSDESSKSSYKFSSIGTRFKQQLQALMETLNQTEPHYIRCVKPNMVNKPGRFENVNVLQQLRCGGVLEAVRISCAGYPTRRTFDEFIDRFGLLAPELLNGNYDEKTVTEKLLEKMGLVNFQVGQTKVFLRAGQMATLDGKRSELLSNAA
Assay: steady-state actin-activated Mg2+-ATPase assay
Assay type: biochemical
Details: F-actin varied, 25 °C

Nc1ncnc2c1ncn2[C@@H]1O[C@H](COP(=O)(O)OP(=O)(O)OP(=O)(O)O)[C@@H](O)[C@H]1O [ATP]
steady-state actin-activated Mg2+-ATPase assay: we determined the maximum rate of ATP turnover (V max) and the actin concentration
